Five molecules from ChEMBL document CHEMBL2074471, “Electrogenic properties and substrate specificity of the polyspecific rat cation transporter rOCT1” (J Biol Chem, 1996) can be followed below.

Broadly, the Km is the substrate concentration at which the rate is half of its maximum.

Data set [1] addresses T1, Solute carrier family 22 member 1 (Rattus norvegicus, UniProt Q63089).
T1 sequence (Q63089 whole entry): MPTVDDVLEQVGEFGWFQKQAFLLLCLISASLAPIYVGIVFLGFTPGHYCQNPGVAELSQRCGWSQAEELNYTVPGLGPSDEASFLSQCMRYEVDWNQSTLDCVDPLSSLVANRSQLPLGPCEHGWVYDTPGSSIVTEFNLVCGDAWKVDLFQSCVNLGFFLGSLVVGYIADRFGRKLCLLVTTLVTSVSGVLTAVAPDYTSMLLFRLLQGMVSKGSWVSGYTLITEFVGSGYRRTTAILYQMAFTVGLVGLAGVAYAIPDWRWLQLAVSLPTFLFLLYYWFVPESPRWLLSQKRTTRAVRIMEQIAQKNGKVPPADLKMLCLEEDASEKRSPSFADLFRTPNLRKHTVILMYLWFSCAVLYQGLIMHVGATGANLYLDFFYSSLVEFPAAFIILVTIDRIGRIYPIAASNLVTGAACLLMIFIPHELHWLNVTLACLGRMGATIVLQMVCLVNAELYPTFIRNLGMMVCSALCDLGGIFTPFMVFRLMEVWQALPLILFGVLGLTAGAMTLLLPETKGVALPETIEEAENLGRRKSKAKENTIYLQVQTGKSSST
The data set can be described thus: TP_TRANSPORTER: uptake (electrogenesis) in Xenopus laevis oocytes. Format: functional, cell-based. The following applies: oocyte.

Substrate in data set [2]: CC[N+](CC)(CC)CC
The data set is described as follows: cells, lysate or membranes named.

Substrate in data set [3]: C[n+]1ccc(-c2ccccc2)cc1
The data set is described as follows: (§1) TP_TRANSPORTER: uptake in Xenopus laevis oocytes. Format: functional, cell-based, Oocyte.

Substrate in data set [4]: CNC(=O)c1cccnc1
Described as §1. Format: functional, cell-based, Oocyte.

Take `CC[n+]1c(CC2C=C(C)N=C(c3ccccc3)N2C)ccc2ccccc21.[Cl-]` (configuration not stated) [Cyanine-863]: in data set [1], the Activity result is “substrate [+]”. Consider `CC(=O)O[C@H]1C[C@@H]2CC[C@@H]3[C@H](CC[C@@]4(C)[C@H]3C[C@H]([N+]3(C)CCCCC3)[C@@H]4OC(C)=O)[C@@]2(C)C[C@@H]1[N+]1(C)CCCCC1` [PANCURONIUM], for which the Activity result in data set [1] is “substrate [+]”. Same read-out and setting: then `NCCCCNCCCN` [SPERMIDINE], with “substrate [+]”; and `NCCCNCCCCNCCCN` [SPERMINE], with “substrate [+]”.

B1: Solute carrier family 22 member 1 (Rattus norvegicus) (protein)
chain: MPTVDDVLEQVGEFGWFQKQAFLLLCLISASLAPIYVGIVFLGFTPGHYCQNPGVAELSQRCGWSQAEELNYTVPGLGPSDEASFLSQCMRYEVDWNQSTLDCVDPLSSLVANRSQLPLGPCEHGWVYDTPGSSIVTEFNLVCGDAWKVDLFQSCVNLGFFLGSLVVGYIADRFGRKLCLLVTTLVTSVSGVLTAVAPDYTSMLLFRLLQGMVSKGSWVSGYTLITEFVGSGYRRTTAILYQMAFTVGLVGLAGVAYAIPDWRWLQLAVSLPTFLFLLYYWFVPESPRWLLSQKRTTRAVRIMEQIAQKNGKVPPADLKMLCLEEDASEKRSPSFADLFRTPNLRKHTVILMYLWFSCAVLYQGLIMHVGATGANLYLDFFYSSLVEFPAAFIILVTIDRIGRIYPIAASNLVTGAACLLMIFIPHELHWLNVTLACLGRMGATIVLQMVCLVNAELYPTFIRNLGMMVCSALCDLGGIFTPFMVFRLMEVWQALPLILFGVLGLTAGAMTLLLPETKGVALPETIEEAENLGRRKSKAKENTIYLQVQTGKSSST
Take B1: the Km in data set [2] was 35 µM; in data set [3], 9.6 µM; in data set [4], 340 µM.
